According to patent US20070032456A1, “Modulation of cell death” (priority 2003, published 2007):

Legend:
[1] = system: IL-6; assay: Level of expression of IL-6 in H9C2 cells treated with PLP under H2O2 oxidative stress; format: cell-based, rat
Procedure: Subcultured H9C2 cells (rat myocardium) (ATCC No. CRL-1446, from the American Type Culture Collection in Manassas, Va.) were plated into six well plates at a concentration of about 10^6 cells per well and allowed to grow overnight. The wells were then treated with concentrations of pyridoxal-5′-phosphate at concentrations of about 0, 50, 100, 250, 500, and 1000 nM in the medium. The cells were incubated for about 40 minutes.
An oxidative stressor, 1 mM H2O2 (Sigma, St. Louis, Mo.), was then added to each well. Supernantant samples were collected from the wells before addition of the 1 mM H2O2, and after 2, 4, 6, and 12 hours of exposure. The supernatant samples were stored at −20° C. until analyzed. The levels of IL-6 were then analyzed in each of the samples using test kits from Biosource Intl. (Camarillo, Calif.).

[2] = system: activated p38; assay: Level of activated p38 in cells treated with PLP; format: cell-based, rat; conditions: data not shown
[3] = in water, alcohol, and ether; cited from earlier work

## Cc1ncc(COP(=O)(O)O)c(C=O)c1O [pyridoxal-5′-phosphate, 3-hydroxy-2-methyl-5-[(phosphonooxy)methyl]-4-pyridinecarboxaldehyde]
[1]; H9C2 cells (rat myocardium) pretreated about 40 minutes with 100 nM or more, then 1 mM H2O2, FIG. 1
  levels of IL-6 expression: decreased levels of IL-6 expression
[1]; H9C2 cells, 100 nM, after application of oxidative stress (1 mM H2O2), FIG. 2
  duration of the decrease of IL-6 levels: at least 12 hours
[2]
  level of activated p38: did not effect the level of activated p38
[3]
  solubility: essentially insoluble
